Measurements: patent publication US20230365559A1, “NOVEL AMINOPYRIDINES AND THEIR USE IN TREATING CANCER” (priority 2020, published 2023)
Values joined by “and” are separate entries in the source; they are usually repeats but may differ in a detail not shown here. Equal values may be shown once.

What was measured:
human PI3Kα (p110α/p85α) = human PI3Kα (p110α/p85α) (Homo sapiens, UniProt P42336); test: Inhibition of PI3Kα kinase activity, ADP-Glo Assay (Reaction Biology); format: biochemical; conditions: 10 μM ATP; mean of two replicates; Table 12; read-out: Inhibition of kinase activity (as IC50) PICK
Sequence of human PI3Kα (p110α/p85α) (P42336 whole entry): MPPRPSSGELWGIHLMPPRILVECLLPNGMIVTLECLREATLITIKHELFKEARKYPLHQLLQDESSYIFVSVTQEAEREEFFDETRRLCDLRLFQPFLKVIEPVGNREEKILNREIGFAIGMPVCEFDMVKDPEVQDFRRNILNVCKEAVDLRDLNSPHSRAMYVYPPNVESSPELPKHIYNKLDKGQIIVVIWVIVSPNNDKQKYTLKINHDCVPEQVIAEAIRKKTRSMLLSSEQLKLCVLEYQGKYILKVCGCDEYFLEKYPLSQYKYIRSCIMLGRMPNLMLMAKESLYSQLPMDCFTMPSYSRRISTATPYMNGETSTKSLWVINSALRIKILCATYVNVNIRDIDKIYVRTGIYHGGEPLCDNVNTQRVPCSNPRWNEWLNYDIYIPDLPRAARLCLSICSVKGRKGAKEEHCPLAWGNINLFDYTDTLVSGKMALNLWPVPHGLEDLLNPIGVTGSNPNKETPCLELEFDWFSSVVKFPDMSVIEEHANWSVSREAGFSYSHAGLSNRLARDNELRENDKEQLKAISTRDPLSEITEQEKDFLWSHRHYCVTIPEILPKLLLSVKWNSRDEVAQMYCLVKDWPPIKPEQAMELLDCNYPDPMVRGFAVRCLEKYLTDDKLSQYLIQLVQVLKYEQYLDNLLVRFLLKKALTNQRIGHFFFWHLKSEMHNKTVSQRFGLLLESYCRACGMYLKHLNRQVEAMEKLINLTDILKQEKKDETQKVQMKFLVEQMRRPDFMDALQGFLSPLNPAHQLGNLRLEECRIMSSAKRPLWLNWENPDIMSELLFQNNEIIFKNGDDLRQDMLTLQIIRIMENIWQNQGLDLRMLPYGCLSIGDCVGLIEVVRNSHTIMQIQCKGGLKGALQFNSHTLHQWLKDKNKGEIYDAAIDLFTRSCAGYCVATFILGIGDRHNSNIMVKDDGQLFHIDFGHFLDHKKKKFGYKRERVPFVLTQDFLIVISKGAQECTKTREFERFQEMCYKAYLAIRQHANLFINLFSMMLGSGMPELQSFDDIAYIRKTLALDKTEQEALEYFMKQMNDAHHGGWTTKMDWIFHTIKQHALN
Sequence of human PI3Kα (p110α/p85α) (P27986 whole entry partner): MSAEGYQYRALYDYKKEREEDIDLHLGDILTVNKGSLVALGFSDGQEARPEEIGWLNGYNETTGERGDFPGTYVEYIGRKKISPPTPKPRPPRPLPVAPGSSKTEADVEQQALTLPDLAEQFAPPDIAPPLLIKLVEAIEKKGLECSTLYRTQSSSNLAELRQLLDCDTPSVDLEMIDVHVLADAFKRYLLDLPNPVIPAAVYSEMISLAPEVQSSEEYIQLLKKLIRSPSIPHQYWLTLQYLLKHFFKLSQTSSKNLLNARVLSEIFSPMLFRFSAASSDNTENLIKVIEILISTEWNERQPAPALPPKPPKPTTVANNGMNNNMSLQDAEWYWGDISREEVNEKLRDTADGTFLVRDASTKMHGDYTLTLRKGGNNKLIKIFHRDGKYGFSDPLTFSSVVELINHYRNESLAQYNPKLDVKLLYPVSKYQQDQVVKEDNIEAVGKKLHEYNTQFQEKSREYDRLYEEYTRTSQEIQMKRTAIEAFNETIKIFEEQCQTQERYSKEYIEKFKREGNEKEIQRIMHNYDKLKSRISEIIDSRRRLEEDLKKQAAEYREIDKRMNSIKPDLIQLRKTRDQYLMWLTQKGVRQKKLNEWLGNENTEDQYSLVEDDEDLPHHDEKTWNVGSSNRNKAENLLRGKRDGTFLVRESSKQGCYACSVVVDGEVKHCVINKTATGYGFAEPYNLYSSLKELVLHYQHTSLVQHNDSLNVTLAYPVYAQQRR

human DNA-PK = human DNA-PK (Homo sapiens, UniProt P78527); test: Inhibition of DNA-PKcs kinase activity, HotSpot assay (Reaction Biology), [γ-33P]-ATP phosphorylation of peptide substrate; format: biochemical; conditions: 10 μM ATP, 10 μg/ml DNA; mean of two replicates; Table 12; read-out: Inhibition of kinase activity (as IC50) DNA-PK (converted)
human mTOR = human mTOR (Homo sapiens, UniProt P42345); test: Inhibition of mTOR kinase activity, HotSpot assay, phosphorylation of 4EPB1; conditions: Inhibition of kinase activity (as IC50) mTOR (nM), 10 μM ATP; mean of two replicates; Table 12
UT-SCC-54C cells = test: Radiosensitisation of UT-SCC-54C HNSCC cells, regrowth (sulforhodamine B) assay, oxic (Table 16); format: cell-based, human; conditions: for IC50: Homo sapiens, read-out: IC50; for S50: compound in combination with 3 Gy of radiation, 50% inhibition of regrowth fraction, UT-SCC-54C; for S50 / radiosensitisation / differential growth inhibition of UT-SCC-54C cells: oxic; for radiosensitisation / differential growth inhibition of UT-SCC-54C cells: 0 or 3 Gy, regrowth assay

Row | Compound | IC50 (human PI3Kα (p110α/p85α)) | IC50 (human DNA-PK) [nM] | IC50 (human mTOR) | IC50 (UT-SCC-54C cells) [µM] | S50 (UT-SCC-54C cells) [µM] | radiosensitisation / differential growth inhibition of UT-SCC-54C cells (UT-SCC-54C cells)
1 | COCCn1c(=O)n(C)c2cnc(Nc3ccc(Cl)cc3C)cc21 [Compound 105, 6-((4-Chloro-2-methylphenyl)amino)-1-(2-methoxyethyl)-3-methyl-1,3-dihydro-2H-imidazo[4,5-c]pyridin-2-one] | 3.26 µM | 12.1 | 71400 nM |  |  | 
2 | Cc1cc(Cl)ccc1Nc1cc2c(cn1)n(C)c(=O)n2C1CCOCC1 [Compound 122, 6-((4-Chloro-2-methylphenyl)amino)-3-methyl-1-(tetrahydro-2H-pyran-4-yl)-1,3-dihydro-2H-imidazo[4,5-c]pyridin-2-one] | 2.53 µM and 5.53 µM |  | 46600 nM and 56100 nM | > 10 | 0.38 | 
3 | Cc1ccc(S(C)(=O)=O)cc1Nc1cc2c(cn1)n(C)c(=O)n2C1CCOCC1 [Compound 123, 3-Methyl-6-((2-methyl-5-(methylsulfonyl)phenyl)amino)-1-(tetrahydro-2H-pyran-4-yl)-1,3-dihydro-2H-imidazo[4,5-c]pyridin-2-one] | 0.678 µM | 0.13 | > 100000 nM | > 10 | 0.74 | 
4 | Cc1nc2ccc(Nc3cc4c(cn3)n(C)c(=O)n4C3CCOCC3)cc2o1 [Compound 128, 3-Methyl-6-((2-methylbenzo[d]oxazol-6-yl)amino)-1-(tetrahydro-2H-pyran-4-yl)-1,3-dihydro-2H-imidazo[4,5-c]pyridin-2-one] | > 10 µM | 1420 | > 100000 nM |  |  | 
5 | Cc1cc2c(cc1Nc1cc3c(cn1)n(C)c(=O)n3C1CCOCC1)OCO2 [Compound 130, 3-Methyl-6-((6-methylbenzo[d][1,3]dioxol-5-yl)amino)-1-(tetrahydro-2H-pyran-4-yl)-1,3-dihydro-2H-imidazo[4,5-c]pyridin-2-one] | 2.53 µM | 3.05 | 10800 nM | > 10 | 0.50 | 
6 | Cc1nc2cc(Nc3cc4c(cn3)n(C)c(=O)n4C3CCOCC3)c(C)cc2o1 [Compound 131, 6-((2,6-Dimethylbenzo[d]oxazol-5-yl)amino)-3-methyl-1-(tetrahydro-2H-pyran-4-yl)-1,3-dihydro-2H-imidazo[4,5-c]pyridin-2-one] | 11 µM | 47.7 | 13400 nM | > 10 | 4.8 | 
7 | Cc1cc2ncc(C(=O)O)n2cc1Nc1cc2c(cn1)n(C)c(=O)n2C1CCOCC1 [Compound 136, 7-Methyl-6-((3-methyl-2-oxo-1-(tetrahydro-2H-pyran-4-yl)-2,3-dihydro-1H-imidazo[4,5-c]pyridin-6-yl)amino)imidazo[1,2-a]pyridine-3-carboxylic acid] | 0.151 µM | 3.6 | 19600 nM |  |  | 
8 | Cc1cc(Cl)ccc1Nc1cc2c(cn1)n(C)c(=O)n2CCC1CCOCC1 [Compound 147, 6-((4-Chloro-2-methylphenyl)amino)-3-methyl-1-(2-(tetrahydro-2H-pyran-4-yl)ethyl)-1,3-dihydro-2H-imidazo[4,5-c]pyridin-2-one] | 0.49 µM | 11 | 7900 nM | > 10 | 0.97 | 
9 | COC1CCC(n2c(=O)n(C)c3cnc(Nc4ccc(Cl)cc4C)cc32)CC1 (centres unmarked) [Compound 173, 6-((4-Chloro-2-methylphenyl)amino)-1-(4-methoxycyclohexyl)-3-methyl-1,3-dihydro-2H-imidazo[4,5-c]pyridin-2-one] | 2.17 µM | 0.64 | 27500 nM | > 10 | 0.85 | 
10 | COc1ccc(-n2c(=O)n(C)c3cnc(Nc4cc(S(C)(=O)=O)ccc4C)cc32)cc1 [Compound 197, 1-(4-Methoxyphenyl)-3-methyl-6-((2-methyl-5-(methylsulfonyl)phenyl)amino)-1,3-dihydro-2H-imidazo[4,5-c]pyridin-2-one] | 0.033 µM | 0.09 | 33400 nM |  |  | 

The next lines start with results.

Row | IC50 (human PI3Kα (p110α/p85α)) | IC50 (human DNA-PK) [nM] | IC50 (human mTOR) | Compound | IC50 (UT-SCC-54C cells) [µM] | S50 (UT-SCC-54C cells) [µM] | radiosensitisation / differential growth inhibition of UT-SCC-54C cells (UT-SCC-54C cells)
11 | 0.264 µM | < 0.05 | 19500 nM | COc1ccc(-n2c(=O)n(C)c3cnc(Nc4ccc(O)cc4C)cc32)cc1 [Compound 200, 6-((4-Hydroxy-2-methylphenyl)amino)-1-(4-methoxyphenyl)-3-methyl-1,3-dihydro-2H-imidazo[4,5-c]pyridin-2-one] | > 10 | 0.31 | 
12 | 4.62 µM | 390 | 42700 nM | COc1cc(C)c(Nc2cc3c(cn2)n(C)c(=O)n3C2CCOCC2)cc1OC [Compound 216, 6-((4,5-Dimethoxy-2-methylphenyl)amino)-3-methyl-1-(tetrahydro-2H-pyran-4-yl)-1,3-dihydro-2H-imidazo[4,5-c]pyridin-2-one] | > 10 | 7.4 | 
13 | 33.1 µM | 52 | 76300 nM | Cc1cc(Cl)cnc1Nc1cc2c(cn1)n(C)c(=O)n2C1CCOCC1 [Compound 217, 6-((5-Chloro-3-methylpyridin-2-yl)amino)-3-methyl-1-(tetrahydro-2H-pyran-4-yl)-1,3-dihydro-2H-imidazo[4,5-c]pyridin-2-one] | > 10 | 3.9 | 
14 | 14.2 µM | 94 | 68400 nM | Cc1cc(Cl)ncc1Nc1cc2c(cn1)n(C)c(=O)n2C1CCOCC1 [Compound 218, 6-((6-Chloro-4-methylpyridin-3-yl)amino)-3-methyl-1-(tetrahydro-2H-pyran-4-yl)-1,3-dihydro-2H-imidazo[4,5-c]pyridin-2-one] | > 10 | 3.1 | 
15 | 20.8 µM | 270 | > 100000 nM | Cc1nc(Cl)ccc1Nc1cc2c(cn1)n(C)c(=O)n2C1CCOCC1 [Compound 219, 6-((6-Chloro-2-methylpyridin-3-yl)amino)-3-methyl-1-(tetrahydro-2H-pyran-4-yl)-1,3-dihydro-2H-imidazo[4,5-c]pyridin-2-one] |  |  | 
16 | 24 µM | 170 | > 100000 nM | COc1cnc(Nc2cc3c(cn2)n(C)c(=O)n3C2CCOCC2)c(C)c1 [Compound 220, 6-((5-Methoxy-3-methylpyridin-2-yl)amino)-3-methyl-1-(tetrahydro-2H-pyran-4-yl)-1,3-dihydro-2H-imidazo[4,5-c]pyridin-2-one] | > 10 | 4.4 | 
17 | 9.36 µM | 441 | > 100000 nM | COc1ccc(Nc2cc3c(cn2)n(C)c(=O)n3C2CCOCC2)c(C)n1 [Compound 221, 6-((6-Methoxy-2-methylpyridin-3-yl)amino)-3-methyl-1-(tetrahydro-2H-pyran-4-yl)-1,3-dihydro-2H-imidazo[4,5-c]pyridin-2-one] |  |  | 
18 | 11.8 µM | 3940 | 41200 nM | COc1ccc(-c2ccc(Nc3cc4c(cn3)n(C)c(=O)n4C3CCOCC3)cc2)cn1 [Compound 223, 6-((4-(6-Methoxypyridin-3-yl)phenyl)amino)-3-methyl-1-(tetrahydro-2H-pyran-4-yl)-1,3-dihydro-2H-imidazo[4,5-c]pyridin-2-one] |  |  | 
19 | 1.65 µM | 3.4 | 58500 nM | Cc1cc2nccnc2cc1Nc1cc2c(cn1)n(C)c(=O)n2C1CCOCC1 [Compound 225, 3-Methyl-6-((7-methylquinoxalin-6-yl)amino)-1-(tetrahydro-2H-pyran-4-yl)-1,3-dihydro-2H-imidazo[4,5-c]pyridin-2-one] | > 10 | 0.27 | 
20 | > 10 µM | 871 | > 100000 nM | COc1ccc(N(C(=O)OCc2cnc([N+](=O)[O-])n2C)c2cc3c(cn2)n(C)c(=O)n3C2CCCC2)c(C)c1 [Compound 247, (1-Methyl-2-nitro-1H-imidazol-5-yl)methyl (1-cyclopentyl-3-methyl-2-oxo-2,3-dihydro-1H-imidazo[4,5-c]pyridin-6-yl)(4-methoxy-2-methylphenyl)carbamate] | > 10 | >10 | did not display any differential growth inhibition
21 | 0.74 µM | 104 | 15600 nM | COc1ccc(Nc2cc3c(cn2)n(C)c(=O)n3C2CCN(C(=O)OCc3cnc([N+](=O)[O-])n3C)CC2)c(C)c1 [Compound 252, (1-Methyl-2-nitro-1H-imidazol-5-yl)methyl 4-(6-((4-methoxy-2-methylphenyl)amino)-3-methyl-2-oxo-2,3-dihydro-1H-imidazo[4,5-c]pyridin-1-yl)piperidine-1-carboxylate] |  |  | 
22 | 0.296 µM | 58 | 11400 nM | COc1ccc(Nc2cc3c(cn2)n(C)c(=O)n3C2CCC(NC(=O)OCc3cnc([N+](=O)[O-])n3C)CC2)c(C)c1 (centres unmarked) [Compound 253, (1-Methyl-2-nitro-1H-imidazol-5-yl)methyl (4-(6-((4-methoxy-2-methylphenyl)amino)-3-methyl-2-oxo-2,3-dihydro-1H-imidazo[4,5-c]pyridin-1-yl)cyclohexyl)carbamate] |  |  | 
23 | > 100 µM | 203 | > 100000 nM | Cc1cc(Cl)ccc1N(C(=O)OCc1cnc([N+](=O)[O-])n1C)c1cc2c(cn1)n(C)c(=O)n2C1CCOCC1 [Compound 257, (1-Methyl-2-nitro-1H-imidazol-5-yl)methyl (4-chloro-2-methylphenyl)(3-methyl-2-oxo-1-(tetrahydro-2H-pyran-4-yl)-2,3-dihydro-1H-imidazo[4,5-c]pyridin-6-yl)carbamate] | > 10 | >10 | did not display any differential growth inhibition
